Laboratory results: patent publication US20210045385A1, “PYRIDAZINONE-SUBSTITUTED KETOXIMES AS HERBICIDES” (FMC Corporation, priority 2018, published 2021)

Experiments:
Type in all cases: in vivo
[1] = tested on: barnyardgrass (Echinochloa crus-galli); assay: Test B flooded paddy test, visual plant response rating; details: 250 g ai/ha, Flood, applied to paddy water, 2-leaf stage, evaluated after 13 to 15 days
Protocol: (§1) Plant species in the flooded paddy test selected from rice (Oryza sativa), sedge, umbrella (small-flower umbrella sedge, Cyperus difformis), ducksalad (Heteranhera limosa), and barnyardgrass (Echinochloa crus-galli) were grown to the 2-leaf stage for testing. At time of treatment, test pots were flooded to 3 cm above the soil surface treated by application of test compounds directly to the paddy water, and then maintained at that water depth for the duration of the test. Treated plants and controls were maintained in a greenhouse for 13 to 15 days, after which time all species were compared to controls and visually evaluated. […] A dash (-) response means no test result.

[2] = tested on: ducksalad (Heteranhera limosa); assay: as above; details: 250 g ai/ha, Flood, applied to paddy water, 2-leaf stage, evaluated after 13 to 15 days
Protocol: as §1

[3] = tested on: sedge, umbrella (small-flower umbrella sedge, Cyperus difformis); assay: as above; details: 250 g ai/ha, Flood, applied to paddy water, 2-leaf stage, evaluated after 13 to 15 days
Protocol: as §1

rice (Oryza sativa) = assay: as above; details: 250 g ai/ha, Flood, applied to paddy water, 2-leaf stage, evaluated after 13 to 15 days
Protocol: as §1

[4] = tested on: barnyardgrass (Echinochloa crus-galli); assay: Test A preemergence, visual plant response rating; details: for Barnyardgrass plant response rating (0 to 100 scale): approx. 10 days
Source text: (§2) Seeds of plant species selected from barnyardgrass (Echinochloa crus-galli), kochia (Kochia scoparia), ragweed (common ragweed, Ambrosia elatior), Italian ryegrass (Lolium multiflorum), foxtail, giant (giant foxtail, Setaria faberii), foxtail, green (green foxtail, Setaria viridis), and pigweed (Amaranthus retroflexus) were planted into a blend of loam soil and sand and treated preemergence with a directed soil spray using test chemicals formulated in a non-phytotoxic solvent mixture which included a surfactant.
(§3) At the same time, plants selected from these weed species and also wheat (Triticum aestivum), corn (Zea mays), blackgrass (Alopecurus myosuroides), and galium (catchweed bedstraw, Galium aparine) were planted in pots containing the same blend of loam soil and sand and treated with postemergence applications of test chemicals formulated in the same manner. Plants ranged in height from 2 to 10 cm and were in the one- to two-leaf stage for the postemergence treatment. Treated plants and untreated controls were maintained in a greenhouse for approximately 10 days, after which time all treated plants were compared to untreated controls and visually evaluated for injury. Plant response ratings, summarized in Table A, are based on a 0 to 100 scale where 0 is no effect and 100 is complete control. A dash (-) response means no test result.

kochia (Kochia scoparia) [5] = assay: Test A preemergence, visual plant response rating; details: for Kochia plant response rating (0 to 100 scale): approx. 10 days
Source text: as §2, §3

[6] = tested on: foxtail, giant (giant foxtail, Setaria faberii); assay: Test A preemergence, visual plant response rating; details: for Foxtail, Giant plant response rating (0 to 100 scale): approx. 10 days
Source text: as §2, §3

[7] = tested on: ragweed (common ragweed, Ambrosia elatior); assay: Test A preemergence, visual plant response rating; details: approx. 10 days
Source text: as §2, §3

[8] = tested on: pigweed (Amaranthus retroflexus); assay: Test A preemergence, visual plant response rating; details: for Pigweed plant response rating (0 to 100 scale): approx. 10 days
Source text: as §2, §3

[9] = tested on: Italian ryegrass (Lolium multiflorum); assay: Test A preemergence, visual plant response rating; details: for Ryegrass, Italian plant response rating (0 to 100 scale): approx. 10 days
Source text: as §2, §3

[10] = tested on: barnyardgrass (Echinochloa crus-galli); assay: Test A postemergence, visual plant response rating; details: for Barnyardgrass plant response rating (0 to 100 scale): 500 g ai/ha, postemergence, 0 is no effect, 100 is complete control; for Barnyardgrass plant response rating: Postemergence, 125 g ai/ha, 0 to 100 scale (0 no effect, 100 complete control)
Source text: as §2, §3

kochia (Kochia scoparia) [11] = assay: Test A postemergence, visual plant response rating; details: for Kochia plant response rating (0 to 100 scale): 500 g ai/ha, postemergence, 0 is no effect, 100 is complete control; for Kochia plant response rating: Postemergence, 125 g ai/ha, 0 to 100 scale (0 no effect, 100 complete control)
Source text: as §2, §3

[12] = tested on: blackgrass (Alopecurus myosuroides); assay: Test A postemergence, visual plant response rating; details: for Blackgrass plant response rating (0 to 100 scale): 500 g ai/ha, postemergence, 0 is no effect, 100 is complete control; for Blackgrass plant response rating: Postemergence, 125 g ai/ha, 0 to 100 scale (0 no effect, 100 complete control)
Source text: as §2, §3

[13] = tested on: wheat (Triticum aestivum); assay: Test A postemergence, visual plant response rating; details: for Wheat plant response rating (0 to 100 scale): 500 g ai/ha, postemergence, 0 is no effect, 100 is complete control; for Wheat plant response rating: Postemergence, 125 g ai/ha, 0 to 100 scale (0 no effect, 100 complete control)
Source text: as §2, §3

[14] = tested on: foxtail, giant (giant foxtail, Setaria faberii); assay: Test A postemergence, visual plant response rating; details: for Foxtail, Giant plant response rating (0 to 100 scale): 500 g ai/ha, postemergence, 0 is no effect, 100 is complete control; for Foxtail, Giant plant response rating: Postemergence, 125 g ai/ha, 0 to 100 scale (0 no effect, 100 complete control)
Source text: as §2, §3

[15] = tested on: galium (catchweed bedstraw, Galium aparine); assay: Test A postemergence, visual plant response rating; details: for Galium plant response rating (0 to 100 scale): 500 g ai/ha, postemergence, 0 is no effect, 100 is complete control; for Galium plant response rating: Postemergence, 125 g ai/ha, 0 to 100 scale (0 no effect, 100 complete control)
Source text: as §2, §3

[16] = tested on: ragweed (common ragweed, Ambrosia elatior); assay: Test A postemergence, visual plant response rating; details: for Ragweed plant response rating (0 to 100 scale): 500 g ai/ha, postemergence, 0 is no effect, 100 is complete control; for Ragweed plant response rating: Postemergence, 125 g ai/ha, 0 to 100 scale (0 no effect, 100 complete control)
Source text: as §2, §3

[17] = tested on: pigweed (Amaranthus retroflexus); assay: Test A postemergence, visual plant response rating; details: for Pigweed plant response rating (0 to 100 scale): 500 g ai/ha, postemergence, 0 is no effect, 100 is complete control; for Pigweed plant response rating: Postemergence, 125 g ai/ha, 0 to 100 scale (0 no effect, 100 complete control)
Source text: as §2, §3

corn (Zea mays) = assay: Test A postemergence, visual plant response rating; details: for Corn plant response rating (0 to 100 scale): 500 g ai/ha, postemergence, 0 is no effect, 100 is complete control; for Corn plant response rating: Postemergence, 125 g ai/ha, 0 to 100 scale (0 no effect, 100 complete control)
Source text: as §2, §3

[18] = tested on: Italian ryegrass (Lolium multiflorum); assay: Test A postemergence, visual plant response rating; details: for Ryegrass, Italian plant response rating (0 to 100 scale): 500 g ai/ha, postemergence, 0 is no effect, 100 is complete control; for Ryegrass, Italian plant response rating: Postemergence, 125 g ai/ha, 0 to 100 scale (0 no effect, 100 complete control)
Source text: as §2, §3

[19] = 125 g ai/ha, preemergence, 0 to 100 scale, 0 no effect, 100 complete control

| Compound | Plant response rating, Barnyardgrass (0 to 100 scale, 0 is no effect, 100 is complete control) [1] | Plant response rating, Ducksalad (0 to 100 scale, 0 is no effect, 100 is complete control) [2] | Plant response rating, Sedge, Umbrella (0 to 100 scale, 0 is no effect, 100 is complete control) [3] | Plant response rating, Rice (0 to 100 scale, 0 is no effect, 100 is complete control) (rice (Oryza sativa)) | Barnyardgrass plant response rating (0 to 100 scale) ([4]; 500 g ai/ha Preemergence) | Kochia plant response rating (0 to 100 scale) (kochia (Kochia scoparia) [5]; 500 g ai/ha Preemergence) | Foxtail, Giant plant response rating (0 to 100 scale) ([6]; 500 g ai/ha Preemergence) | Pigweed plant response rating (0 to 100 scale) ([8]; 500 g ai/ha Preemergence) | Ryegrass, Italian plant response rating (0 to 100 scale) ([9]; 500 g ai/ha Preemergence) | Barnyardgrass plant response rating (0 to 100 scale) [10] | Barnyardgrass plant response rating [10] | Kochia plant response rating (0 to 100 scale) (kochia (Kochia scoparia) [11]) | Kochia plant response rating (kochia (Kochia scoparia) [11]) | Blackgrass plant response rating (0 to 100 scale) [12] | Blackgrass plant response rating [12] | Wheat plant response rating (0 to 100 scale) [13] | Wheat plant response rating [13] | Foxtail, Giant plant response rating (0 to 100 scale) [14] | Foxtail, Giant plant response rating [14] | Galium plant response rating (0 to 100 scale) [15] | further results |
| --- | --- | --- | --- | --- | --- | --- | --- | --- | --- | --- | --- | --- | --- | --- | --- | --- | --- | --- | --- | --- | --- |
| C=CCn1nc(C)c(O)c(C(=NOC)c2cccc(Cl)c2)c1=O (mixture of isomers) [Compound 5] | 0 | 0 | 0 | 0 | 70 | 0 | 10 | 0 | 20 | 30 | 10 | 0 | 0 | 50 | 10 | 0 | 0 | 10 | 0 | 0 | Barnyardgrass plant response rating (0 to 100 scale) ([4]; 125 g ai/ha Preemergence): 20; Kochia plant response rating (0 to 100 scale) (kochia (Kochia scoparia) [5]; 125 g ai/ha Preemergence): 0; Foxtail, Giant plant response rating (0 to 100 scale) ([6]; 125 g ai/ha Preemergence): 0; Ragweed plant response rating (0 to 100 scale) ([7]; 125 g ai/ha Preemergence): 0; Ragweed plant response rating (0 to 100 scale) ([7]; 500 g ai/ha Preemergence): 0; Pigweed plant response rating (0 to 100 scale) ([8]; 125 g ai/ha Preemergence): 0; Ryegrass, Italian plant response rating (0 to 100 scale) ([9]; 125 g ai/ha Preemergence): 0; Galium plant response rating [15]: 0; Ragweed plant response rating (0 to 100 scale) [16]: 0; Ragweed plant response rating [16]: 0; Pigweed plant response rating (0 to 100 scale) [17]: 0; Pigweed plant response rating [17]: 0; Corn plant response rating (0 to 100 scale) (corn (Zea mays)): 0; Corn plant response rating (corn (Zea mays)): 0; Ryegrass, Italian plant response rating (0 to 100 scale) [18]: 30; Ryegrass, Italian plant response rating [18]: 0 |
| CO/N=C(/c1c(OC(C)=O)c(Cl)nn(C)c1=O)c1cccc2ccccc12 [Compound 132] | 0 | 25 | 15 | 0 | 80 | 90 | 90 | 80 | 0 | 60 | 20 | 80 | 60 | 60 | 40 | 0 | 0 | 60 | 40 | 100 | Barnyardgrass plant response rating [4, 19]: 70; Kochia plant response rating (kochia (Kochia scoparia) [5]; [19]): 90; Foxtail, Giant plant response rating [6, 19]: 40; Pigweed plant response rating [8, 19]: 80; Ryegrass, Italian plant response rating [9, 19]: 0; Galium plant response rating [15]: 90; Ragweed plant response rating (0 to 100 scale) [16]: 90; Ragweed plant response rating [16]: 90; Pigweed plant response rating (0 to 100 scale) [17]: 70; Pigweed plant response rating [17]: 40; Corn plant response rating (0 to 100 scale) (corn (Zea mays)): 10; Corn plant response rating (corn (Zea mays)): 10; Ryegrass, Italian plant response rating (0 to 100 scale) [18]: 20; Ryegrass, Italian plant response rating [18]: 10 |
